Structures are written as SMILES. pIC50: −log10 of the molar value. ≈ marks a conversion by molar mass, not a printed value. Where two headings read alike, the source gives them in different places. Bounds are passed on as bounds.

This is an account of results in publication PMC10818931, “In Vitro Evaluation of Drug–Drug Interaction Potential of Epetraborole, a Novel Bacterial Leucyl-tRNA Synthetase Inhibitor” (Pharmaceuticals, 2024).

The target in one data set is P-gp (Homo sapiens, UniProt P08183). The data set is described as follows: Substrate potential for P-gp, bidirectional permeability in MDR1-MDCK. In kind it is in vitro ADME. As to conditions: for Concentration in the receiver compartment: 5 µM, MDR1-MDCK and MDCK cells, A to B and B to A, Papp and efflux ratio could not be calculated; for as a Substrate: P-gp. The method, then:
In vitro evaluation of the substrate potential of EBO (5 µM) and M3 (5 µM) for P-gp was conducted in single transporter-transfected and non-transfected Madin–Darby canine kidney (MDCK) cells monolayers according to Absorption Systems (Exton, PA, USA) standard operating procedures (SOP). The integrity of each cell monolayer was evaluated by lucifer yellow presence.

A further data set addresses T1, BCRP (Homo sapiens, UniProt Q9UNQ0).
T1 construct: host or cells: MDCK (BCRP-MDCK)
T1 sequence (Q9UNQ0 1-655): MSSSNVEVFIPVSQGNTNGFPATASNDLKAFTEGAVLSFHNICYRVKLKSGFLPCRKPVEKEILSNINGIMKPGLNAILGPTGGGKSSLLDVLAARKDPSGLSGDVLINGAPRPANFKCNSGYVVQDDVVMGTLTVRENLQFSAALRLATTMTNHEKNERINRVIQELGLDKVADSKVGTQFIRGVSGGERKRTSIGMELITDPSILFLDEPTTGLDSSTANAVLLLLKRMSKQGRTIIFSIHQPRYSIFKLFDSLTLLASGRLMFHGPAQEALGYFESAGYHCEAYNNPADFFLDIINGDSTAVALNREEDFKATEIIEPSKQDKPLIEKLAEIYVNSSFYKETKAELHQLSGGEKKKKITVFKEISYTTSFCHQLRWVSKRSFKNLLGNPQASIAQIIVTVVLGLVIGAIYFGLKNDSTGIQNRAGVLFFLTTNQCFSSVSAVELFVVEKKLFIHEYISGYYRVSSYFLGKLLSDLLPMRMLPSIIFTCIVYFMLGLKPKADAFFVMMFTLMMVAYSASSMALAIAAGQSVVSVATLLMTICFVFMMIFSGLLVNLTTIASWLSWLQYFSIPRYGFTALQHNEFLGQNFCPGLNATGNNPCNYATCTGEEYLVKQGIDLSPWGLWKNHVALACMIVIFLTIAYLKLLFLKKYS
The data set is described as follows: Inhibition of BCRP-mediated efflux transport in BCRP-MDCK cells. Format: in vitro ADME. The method, then:
A preincubation with EBO or known inhibitor was performed on both sides to preload the cells. After 30 min, the preincubation solution was aspirated. Aliquots of fresh dosing solution with or without EBO or known inhibitor (0.55 mL for AP-to-BL, 1.55 mL for BL-to-AP) were added to the donor compartment, and HBSSg_7.4 with or without EBO or known inhibitor (1.5 mL for AP-to-BL, 0.5 mL for BL-to-AP) were added to the receiver compartment. Receiver samples (200 µL) and donor samples (50 µL) were taken at preselected time points.
Cell monolayer integrity was examined using lucifer yellow (excitation 450 nm and emission 538 nm). The concentrations of the probe substrate in the donor and receiver samples, as well as EBO in dosing solutions, were determined by LC-MS/MS.

Data set [1] is described as follows: Solubility in transport buffer. As to conditions: aqueous buffer, read-out: Soluble up to. In kind it is physicochemical.
The subject of data set [2] is HEK 293 or MDCK cell lines. The data set is described as follows: Cytotoxicity in transporter inhibition studies. In kind it is cell-based. To be noted: at the concentrations tested in transporter inhibition studies.
In the next data set the test system is human hepatocytes. The data set is described as follows: Cytotoxicity in hepatocytes. To be noted: EBO at 100 µM, M3 at 250 µM. The method, then:
The induction potential of EBO and M3 on CYP1A2, CYP2B6, and 3A4 was evaluated by incubating the test articles with plated human hepatocytes from 3 individual donors (GKJ, ZEY, WKF) in triplicate according to WuXi AppTec (Cranbury, NJ, USA) SOP.

Another data set has as its system CYP3A4/5. The data set is described as follows: CYP inhibition (direct and metabolism-dependent) in human hepatic microsomes. Format: in vitro ADME. To be noted: for MDI IC50 Fold Change: metabolism-dependent inhibition; for pIC50: read-out: as an Inhibitor IC50. The method, then:
The direct inhibitory potential of EBO on cytochrome P450 activities O-deethylase (CYP1A2), bupropion hydroxylase (CYP2B6), amodiaquine N-deethylase (CYP2C8), diclofenac 4′-hydroxylase (CYP2C9), S-mephenytoin 4′-hydroxylase (CYP2C19), bufuralol 1′-hydroxylase (CYP2D6), chlorzoxazone 6-hydroxylase (CYP2E1), testosterone 6β-hydroxylase (CYP3A), and midazolam 1′-hydroxylase (CYP3A) was assessed in vitro using human hepatic microsomes according to Covance Laboratory (Madison, WI, USA) SOP. A single substrate concentration was used, approximating the concentration of substrate that gives half the maximum reaction velocity (Km) for human hepatic microsomes for each cytochrome P450 activity. […] All sample and control incubations were performed in triplicate and were analyzed by LC-MS/MS. Incubation mixtures contained microsomal protein and substrate in a 0.1 M potassium phosphate buffer (pH 7.4) containing 1 mM EDTA (assay buffer). […] Incubations were terminated by the addition of 100 µL of an internal standard solution followed by vortex mixing. Protein was removed by centrifugation at 1500× g for 5 min at 4 °C, and supernatants were transferred to a separate plate and stored at 4 °C prior to LC-MS/MS analysis. The analyte for each activity assay was quantitated by comparison to a linear curve of an authentic standard prepared using human microsomal protein. […] Incubations were performed at substrate concentrations approximating the average Km values. […] For determination of control activities, NADPH was added after the addition of each substrate. Samples were then processed as previously described. […] Two sets of duplicate incubations were prepared (cofactor preincubation [50 µL] and control preincubation [50 µL]) with each concentration of M3. All incubations contained a final microsomal protein concentration of 0.1 mg/mL. In this study, M3 and microsomes were preincubated with cofactor for 20 min prior to initiation of reaction by addition of probe substrate. The corresponding control incubations were designed to provide a preincubation without cofactor while incorporating the 20 min preincubation of M3 with microsomes to ensure consistent equilibration of M3 in both control and cofactor preincubations. The control preincubations were therefore performed for 20 min with M3, microsomes, and probe substrate, and the reaction was initiated by the addition of a cofactor solution. […] Incubations without cofactor (at the highest concentration of M3) were performed to determine any cofactor-independent substrate metabolism formation. Probe substrate concentrations were determined by LC/MS/MS methods.

Chain of P-gp (P08183 whole entry): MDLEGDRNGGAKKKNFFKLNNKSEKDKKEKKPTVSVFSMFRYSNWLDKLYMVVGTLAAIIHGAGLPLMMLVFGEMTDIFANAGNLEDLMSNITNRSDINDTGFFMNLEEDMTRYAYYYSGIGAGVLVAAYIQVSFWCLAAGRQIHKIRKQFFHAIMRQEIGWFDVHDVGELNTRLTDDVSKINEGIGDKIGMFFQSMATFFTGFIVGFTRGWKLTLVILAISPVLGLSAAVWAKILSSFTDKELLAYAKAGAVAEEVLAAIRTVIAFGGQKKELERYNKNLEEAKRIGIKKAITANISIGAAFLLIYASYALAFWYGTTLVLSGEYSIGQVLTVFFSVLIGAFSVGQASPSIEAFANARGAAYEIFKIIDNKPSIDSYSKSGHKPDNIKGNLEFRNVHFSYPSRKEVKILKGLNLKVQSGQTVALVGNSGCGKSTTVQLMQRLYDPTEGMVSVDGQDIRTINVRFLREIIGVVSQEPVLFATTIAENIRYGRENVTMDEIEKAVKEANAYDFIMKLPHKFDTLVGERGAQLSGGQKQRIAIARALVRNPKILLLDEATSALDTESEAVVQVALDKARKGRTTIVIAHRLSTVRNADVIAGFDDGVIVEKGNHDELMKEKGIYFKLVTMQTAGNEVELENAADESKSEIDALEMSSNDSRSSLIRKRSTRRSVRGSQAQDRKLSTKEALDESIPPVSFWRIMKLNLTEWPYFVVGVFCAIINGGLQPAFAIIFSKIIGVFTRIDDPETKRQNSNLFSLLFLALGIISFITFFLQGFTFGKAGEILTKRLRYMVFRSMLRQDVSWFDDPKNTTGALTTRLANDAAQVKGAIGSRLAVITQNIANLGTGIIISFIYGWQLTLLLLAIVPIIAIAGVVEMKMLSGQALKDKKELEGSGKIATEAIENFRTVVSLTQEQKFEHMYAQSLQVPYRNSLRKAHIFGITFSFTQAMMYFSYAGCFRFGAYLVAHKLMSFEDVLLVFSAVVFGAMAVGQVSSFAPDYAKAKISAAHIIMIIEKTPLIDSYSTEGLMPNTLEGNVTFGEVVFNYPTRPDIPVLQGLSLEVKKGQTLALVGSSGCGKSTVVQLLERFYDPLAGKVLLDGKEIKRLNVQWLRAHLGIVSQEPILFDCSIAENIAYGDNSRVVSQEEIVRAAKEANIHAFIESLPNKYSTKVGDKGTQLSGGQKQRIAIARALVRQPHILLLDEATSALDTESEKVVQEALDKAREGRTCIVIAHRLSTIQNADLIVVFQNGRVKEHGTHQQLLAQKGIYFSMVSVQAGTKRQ

Take `NC[C@H]1OB(O)c2c(OCCC(=O)O)cccc21` [M3]: the “Concentration in the receiver compartment” value on P-gp was “below the lower limit of quantification”. At P-gp, the “as a Substrate” value is given as “No”. The compound also yielded an inhibition at 500 µM against BCRP (human, BCRP-MDCK cells, pH 7.4, at 500 μM) of 44%. Besides, the pIC50 was under 3.30 at BCRP (read-out: as an Inhibitor, IC50); under 3.00 in the data set with CYP3A4/5 (CYP3A4/5 (Atorvastatin)); under 3.00 in the data set on CYP3A4/5 (human, microsomes, pH 7.4, CYP3A4/5 (Midazolam)). The solubility in data set [1] (transport buffer pH 7.4) and in data set [1] (transport buffer pH 8.5) was 250 µM (≈ 62.8 µg/mL) each time. The Cytotoxicity entry in data set [2] is recorded as “Neither EBO nor M3 induced any cytotoxicity”. In the data set with human hepatocytes, the “Cytotoxicity (>20%)” value is “did not induce cytotoxicity (>20%)”. Also, the “MDI IC50 Fold Change” value with CYP3A4/5 (CYP3A4/5 (Atorvastatin)) and with CYP3A4/5 (CYP3A4/5 (Midazolam)) was “No” in each case.
For the compound `NC[C@H]1OB(O)c2c(OCCCO)cccc21` [EBO, Epetraborole], at P-gp, the “Concentration in the receiver compartment” value is “below the lower limit of quantification” and the “as a Substrate” value was “No”. Also, testing at 300 µM against BCRP (human, BCRP-MDCK cells, pH 7.4, at 300 μM) gave an inhibition of 13%. Besides, the inhibition at 1000 µM against BCRP (human, BCRP-MDCK cells, pH 7.4, at 1000 µM) turned out to be 27%. Besides, the solubility in data set [1] (transport buffer pH 7.4) was determined as 17000 µM (≈ 4030 µg/mL). The solubility in data set [1] (transport buffer pH 8.5) was 100 µM (≈ 23.7 µg/mL). Further, the Cytotoxicity entry in data set [2] is on record as “Neither EBO nor M3 induced any cytotoxicity”. Further, the “Cytotoxicity (>20%)” value in the data set on human hepatocytes is “did not induce cytotoxicity (>20%)”. Also, the “MDI IC50 Fold Change” value in the data set on CYP3A4/5 (CYP3A4/5 (Midazolam)) is reported as “No”. In addition, the pIC50 in the data set on CYP3A4/5 (human, human hepatic (liver) microsomes, pH 7.4, probe midazolam (1′-hydroxylation), CYP3A4/5 (Midazolam)) was under 4.00.
